According to PubChem BioAssay (NCI):
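Interpolation was linear, between the two tested concentrations surrounding the appropriate level; five concentrations were tested over 48 hours in 96-well plates. TGI marks complete inhibition of growth.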

Columns and labels:
Experiment in all cases: NCI-60 cell line screen, 48 h
OVCAR-5 ovarian = tested on: OVCAR-5 ovarian
SF-295 CNS = tested on: SF-295 CNS
OVCAR-3 ovarian = tested on: OVCAR-3 ovarian
CCRF-CEM leukemia = tested on: CCRF-CEM leukemia
DU-145 prostate = tested on: DU-145 prostate
NCI-H23 lung = tested on: NCI-H23 lung
HCT-116 colon = tested on: HCT-116 colon
SF-539 CNS = tested on: SF-539 CNS
KM12 colon = tested on: KM12 colon
SN12C renal = tested on: SN12C renal
NCI-H522 lung = tested on: NCI-H522 lung
PC-3 prostate = tested on: PC-3 prostate
UACC-62 melanoma = tested on: UACC-62 melanoma
CAKI-1 renal = tested on: CAKI-1 renal
SNB-19 CNS = tested on: SNB-19 CNS
RXF 393 renal = tested on: RXF 393 renal
OVCAR-4 ovarian = tested on: OVCAR-4 ovarian

Structure (SMILES)	TGI (OVCAR-5 ovarian)	TGI (SF-295 CNS)	TGI (OVCAR-3 ovarian)	TGI (CCRF-CEM leukemia)	TGI (DU-145 prostate)	TGI (NCI-H23 lung)	TGI (HCT-116 colon)	TGI (SF-539 CNS)	TGI (KM12 colon)	TGI (SN12C renal)	TGI (NCI-H522 lung)	TGI (PC-3 prostate)	TGI (UACC-62 melanoma)	TGI (CAKI-1 renal)	TGI (SNB-19 CNS)	TGI (RXF 393 renal)	TGI (OVCAR-4 ovarian)
CCOC(=O)NC(Nc1cccc(C(F)(F)F)c1)(C(F)(F)F)C(F)(F)F	> 100 µM	> 100 µM	> 100 µM	> 100 µM	> 100 µM	> 100 µM	> 100 µM	> 100 µM	> 100 µM	> 100 µM	> 100 µM	> 100 µM	> 100 µM	> 100 µM	> 100 µM	> 100 µM	
C=C([C@@]1(O)C[C@H]2[C@H](CCC2(OC)OC)[C@@H]2c3ccccc3O[C@@H]21)[Si](C)(C)C	> 100 µM	> 100 µM	> 100 µM		> 100 µM		> 100 µM	> 100 µM	> 100 µM	> 100 µM	> 100 µM	> 100 µM	> 100 µM	> 100 µM	> 100 µM		> 100 µM
Nc1ccc(S2(c3ccc(N)cc3)C=C(c3ccccc3)C(c3ccccc3)=C2)cc1	> 100 µM	> 100 µM	> 100 µM	> 100 µM	> 90.3 µM	> 100 µM	> 100 µM	> 100 µM	> 100 µM	> 100 µM		> 100 µM	> 100 µM	> 22.6 µM	> 100 µM	> 100 µM	> 25.2 µM
S=C(Nc1ccc2c(c1)oc1ccccc12)c1cccnc1	> 100 µM	> 100 µM	67.3 µM	> 100 µM	> 100 µM	> 100 µM	> 100 µM		> 100 µM	> 100 µM	64 µM	> 100 µM	> 100 µM		77.7 µM		> 100 µM
CC(C)NC(=O)OCCN=c1c2ccccc2ccc2ccccc12	> 100 µM	> 100 µM	95.6 µM	62.5 µM	> 100 µM	> 100 µM	> 100 µM	> 100 µM	> 100 µM	> 100 µM		72.5 µM	> 100 µM	> 100 µM	> 100 µM	> 100 µM	> 100 µM
COc1cc(OC)c(C2c3cc4c(cc3OC(N3CCCC3)C2C)OCO4)c(OC)c1 (stereo not given)	69 µM	36.1 µM	20.5 µM	45.5 µM	59.2 µM	59.1 µM	16.7 µM	25.9 µM	30.2 µM	47.9 µM	48.7 µM	49 µM	69.6 µM		51.1 µM		
CC(C)(Cl)C(Br)CCC(=CCCl)CBr (mixture of isomers)	21.4 µM	13 µM	3.9 µM	> 21.1 µM	10.7 µM	4.28 µM	3.67 µM	3.96 µM	4.04 µM	7.06 µM	2.24 µM	7.22 µM	5.41 µM		6.87 µM	7.57 µM	5.31 µM
Cc1cc(S(=O)(=O)Nc2nc3cc(-c4ccc(Cl)cc4)sc3c(=O)n2N)c(S)cc1Cl	> 100 µM	> 100 µM	> 100 µM	59 µM	> 100 µM	> 100 µM	> 100 µM		> 100 µM	> 100 µM	> 100 µM	> 100 µM	> 100 µM	> 100 µM	> 100 µM	> 100 µM	> 100 µM
CC(C)=CCNc1ncnc2c1ncn2CCC#N	> 100 µM	> 100 µM	> 100 µM	> 100 µM	> 100 µM	> 100 µM	> 100 µM	> 100 µM	> 100 µM	> 100 µM	> 100 µM	> 100 µM	> 100 µM		> 100 µM	> 100 µM	> 100 µM
O=C1C(=Cc2ccccc2O)N=C(c2ccccc2)N1n1c(-c2ccccc2)nc2ccccc2c1=O		56.8 µM		88.6 µM	> 100 µM	89.5 µM	89.8 µM	50 µM	98.4 µM	> 100 µM	67.1 µM	> 100 µM	> 100 µM	84.8 µM	> 100 µM		
CCOC(=O)NC(Nc1ccc([N+](=O)[O-])cc1)(C(F)(F)F)C(F)(F)F	> 100 µM	> 100 µM	> 100 µM	> 100 µM	> 100 µM	> 100 µM	> 100 µM	> 100 µM	> 100 µM	> 100 µM	> 100 µM	> 100 µM	> 100 µM	> 100 µM	> 100 µM	97.1 µM	
CN(C)c1ccc(C2SCC(=O)N2c2ccc(Oc3ccc(Cl)cc3)c(Cl)c2)cc1 (stereo not given)	87.7 µM		79.9 µM	69.5 µM	57.2 µM	45.4 µM	32.7 µM	40.4 µM	40.9 µM	50 µM	42.9 µM	55.6 µM	42.7 µM	> 100 µM	54.8 µM		69 µM
C=C1CN2CC(=C)CN(C1)CS(=O)(=O)N1CC(=C)CN(CC(=C)C1)S(=O)(=O)N1CC(=C)CN(CC(=C)C1)S(=O)(=O)C2	> 100 µM	> 100 µM	> 100 µM		> 100 µM	> 100 µM	> 100 µM	39.9 µM	> 100 µM	> 100 µM	> 100 µM	38.6 µM	> 100 µM	> 100 µM	> 100 µM	56.8 µM	> 100 µM
[N-]=[N+]=NC1=C(c2ccccn2)C(=O)c2cccc3cccc1c23	> 100 µM	> 100 µM	> 100 µM	> 100 µM	> 100 µM	> 100 µM	> 100 µM	> 100 µM	> 100 µM	> 100 µM		> 100 µM	> 100 µM	> 100 µM	> 100 µM	> 100 µM	> 100 µM
CC(C)(C)C(=O)CC1=Nc2ccccc2SC1(O)CC(=O)C(C)(C)C (stereo not given)	69 µM	68.6 µM	75.3 µM	32.2 µM	> 100 µM	98.7 µM	53.7 µM	61.3 µM	> 100 µM	73.2 µM	34.4 µM	73.6 µM	31.3 µM	56.8 µM	> 100 µM	65.8 µM	
